{"source": "patent US20090118253A1", "about": "“COMPOSITIONS AND METHODS FOR TREATING DYSFUNCTIONAL UTERINE BLEEDING” (REPROS THERAPEUTICS INC., priority 2007, published 2009)", "key": {"glucocorticoid receptor": {"target": "T1, glucocorticoid receptor (Homo sapiens, UniProt P04150)", "T1 sequence (P04150 1-777)": "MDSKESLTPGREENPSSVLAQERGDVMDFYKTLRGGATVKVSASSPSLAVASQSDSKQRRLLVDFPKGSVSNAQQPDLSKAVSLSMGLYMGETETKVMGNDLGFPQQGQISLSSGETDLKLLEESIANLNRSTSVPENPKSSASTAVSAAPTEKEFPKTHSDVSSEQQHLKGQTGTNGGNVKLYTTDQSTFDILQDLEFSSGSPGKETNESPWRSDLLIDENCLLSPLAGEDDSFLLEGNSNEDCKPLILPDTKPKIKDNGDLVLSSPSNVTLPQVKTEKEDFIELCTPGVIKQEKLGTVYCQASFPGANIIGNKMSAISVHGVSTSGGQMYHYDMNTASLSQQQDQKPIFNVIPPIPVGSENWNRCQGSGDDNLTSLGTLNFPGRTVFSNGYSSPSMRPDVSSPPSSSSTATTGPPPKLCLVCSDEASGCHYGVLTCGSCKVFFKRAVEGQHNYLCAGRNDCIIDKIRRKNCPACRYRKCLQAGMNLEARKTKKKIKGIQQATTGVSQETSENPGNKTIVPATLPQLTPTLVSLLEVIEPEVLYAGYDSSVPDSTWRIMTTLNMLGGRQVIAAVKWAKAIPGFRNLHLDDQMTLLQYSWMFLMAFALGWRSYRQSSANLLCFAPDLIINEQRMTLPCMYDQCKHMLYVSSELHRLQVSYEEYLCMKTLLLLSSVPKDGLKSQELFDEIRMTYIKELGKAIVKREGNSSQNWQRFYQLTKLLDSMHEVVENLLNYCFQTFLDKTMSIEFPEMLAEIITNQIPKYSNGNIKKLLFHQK", "settings": "compared with parent CDB-4124; cited from earlier work"}, "[1]": {"experiment": "Urinary progesterone levels (luteal phase) in cynomolgus monkeys", "format": "in vivo, Cynomolgus monkeys (Macaca fascicularis)", "settings": "n=14 per group; CDB-4124 or RU-486 oral 1.0 mg/kg/day for 36 weeks; Lupron IM once per month", "procedure": "(§1) Cynomolgus monkeys (Macaca fascicularis) (n=14) were treated orally for 36 weeks with CDB-4124 or RU-486 at 1.0 mg/kg/day or with placebo (control). Another group (n=14) received Lupron® IM once per month. Urinary progesterone levels were measured for each animal for one month during the middle of the study (weeks 14-17) and for the last month of the study (weeks 33-36)."}, "[2]": {"experiment": "Urinary estrogen levels (follicular phase) in cynomolgus monkeys", "format": "in vivo, Cynomolgus monkeys (Macaca fascicularis)", "set-up": "Urinary estrogen, follicular phase, Mean: unit not given here", "settings": "for Urinary estrogen, follicular phase, Mean: CDB-4124 or RU-486 oral 1.0 mg/kg/day, Lupron IM once per month", "procedure": "as §1, with “33-36). The results are presented below:” for “33-36).”\nUrinary estrogen levels were measured for each animal of Example 6 for one month during the middle of the study (weeks 14-17) and for the last month of the study (weeks 33-36). The follicular phase results are based on 35 baseline ovulating cycles."}, "[3]": {"system": "Cynomolgus monkey endometrial epithelia, uterus stroma and breast", "experiment": "BrdU incorporation, tissue proliferation in cynomolgus monkeys", "format": "in vivo, Cynomolgus monkeys (Macaca fascicularis)", "settings": "week 36, % cells positive for incorporation of BrdU, three animals per group", "procedure": "At week 36, three animals from each group of Example 6 were injected within 24 hours of sacrifice with the thymidine analog bromodeoxyuridine (BrdU), a marker of proliferating cells and their progeny, to assess tissue proliferation. Full thickness uterine sections were stained and examined microscopically for evidence of proliferation in terms of the % cells positive for incorporation of BrdU: […]"}, "[4]": {"system": "Cynomolgus monkey endometrial epithelium, uterus stroma and breast", "experiment": "TUNEL apoptosis in cynomolgus monkey tissue", "format": "in vivo, Cynomolgus monkeys (Macaca fascicularis)", "settings": "week 36, percent apoptotic cells", "procedure": "Apoptosis was assessed in tissue from the same animals on slides by the terminal deoxynucleotidyl transferase mediated dUTP-biotin nick end labeling (TUNEL) technique."}, "[5]": {"system": "pre-menopausal adult women diagnosed with endometriosis", "experiment": "Six month endometriosis study: pain diaries and pain intensity surveys", "format": "in vivo, human", "procedure": "Pain reduction also occurred more rapidly than with the active control, Lucrin®. The response of pain to treatment in this study was analyzed in two ways. Patients in the study maintained daily pain diaries to record the severity and frequency of pain. In addition, at each office visit, patients filled out endometriosis symptom surveys that included a questionnaire that evaluated intensity of pain on a bad day on a scale of 0-10 with 10 being the greatest intensity. […] This decrease in duration of pain was statistically better (p=0.0012) than the 117.8 (74%; standard deviation 51.4 days) pain free days achieved with Lucrin n. […] Patients on CDB-4124 12.5 mg and 25 mg doses had 115.9 (66%; standard deviation 69.2 days) and 133.6 (75%; standard deviation 27.4 days) pain free days, respectively. […] The 25 mg and 12.5 mg doses of CDB-4124 were not statistically different from Lucrin®. […] The intensity of pain was asked by the question: “On a scale of 1-10, with 0 being no pain and 10 being extreme pain, how intense was your pain on a bad day?” The mean scores for intensity of pain at baseline were 6.3 for the CDB-4124 groups and 6.1 for the Lucrin® group. […] At month three all four active treatment groups had satistically significant reduction in pain compared with baseline, with the following scores: 3.7 (p=0.03) for 12.5 mg CDB-4124, 3.2 (p=0.03) for 25 mg CDB-4124, 1.6 (p=0.015) for 50 mg CDB-4124 and 1.5 (p=0.016) for Lucrin®. These dose related reductions continued until month six when the values for pain intensity were 2.0 (p=0.008), 2.8 (p=0.023), 0.6 (p=0.004) and 0.7 (p=0.016), respectively. Two months after stopping treatment pain returned and was of similar intensity in all four treatment groups."}, "human endometrium": {"system": "human endometrium", "experiment": "Six month endometriosis study: ultrasound measurements of endometrial thickness", "format": "in vivo", "description": "Women in the study were closely monitored for changes in the structure of the endometrium. […] Comparisons were made to both baseline and visit one ultrasound measurements of endometrial thickness. […]"}, "[6]": {"settings": "in vivo", "method": "Thirty-nine pre-menopausal adult women diagnosed with endometriosis were the subject of a six month study of Proellex™ (CDB-4124) in the treatment of endometriosis. The study included three dose levels of CDB-4124 as well as a positive control arm. The positive control was Lucrin®, a GnRH agonist, commonly used for the treatment of endometriosis (also known as Lupron®). CDB-4124 was administered in a double blinded fashion as a daily oral capsule at dosages of 12.5mg/day (n=2), 25mg/day (n=3) and 50mg/day (n=3). Another group (n=4) were injected with a slow release formulation of Lucrin® once per month as a positive control."}}}
{"smiles": "CNc1ccc([C@H]2C[C@@]3(C)[C@@H](CC[C@]3(OC(C)=O)C(=O)COC)[C@@H]3CCC4=CC(=O)CCC4=C32)cc1", "note": "[CDB-4453, 21-methoxy-17α-acetoxy-11β-(4-N-methylaminophenyl)-19-norpregna-4,9-diene-3,20-dione]", "values": [{"measurement": "anti-glucocorticoid activity", "setting": "glucocorticoid receptor", "result": "even lower anti-glucocorticoid activity than its parent"}]}
{"smiles": "CCNC(=O)[C@@H]1CCCN1C(=O)[C@H](CCCNC(=N)N)NC(=O)[C@H](CC(C)C)NC(=O)[C@@H](CC(C)C)NC(=O)[C@H](Cc1ccc(O)cc1)NC(=O)[C@H](CO)NC(=O)[C@H](Cc1c[nH]c2ccccc12)NC(=O)[C@H](Cc1c[nH]cn1)NC(=O)[C@@H]1CCC(=O)N1", "note": "[Lupron ®, leuprolide acetate]", "values": [{"measurement": "Decrease in luteal phase progesterone (number of animals)", "setting": "[1]", "result": 13}, {"measurement": "No decrease in luteal phase progesterone (number of animals)", "setting": "[1]", "result": 1}, {"measurement": "Follicular phase estrogen Lower?", "setting": "[2]; Week 18", "result": "Yes"}, {"measurement": "Urinary estrogen, follicular phase, Mean", "setting": "[2]; Week 18", "result": 49.9}, {"measurement": "Follicular phase estrogen Lower?", "setting": "[2]; Week 36", "result": "Yes"}, {"measurement": "Urinary estrogen, follicular phase, Mean", "setting": "[2]; Week 36", "result": 41.7}, {"measurement": "Breast Brdu-%", "setting": "[3]", "result": "0.3 ± 0.1", "unit": "%"}, {"measurement": "Uterus epithelium Brdu-%", "setting": "[3]", "result": "3.1 ± 0.8", "unit": "%"}, {"measurement": "Uterus stroma Brdu-%", "setting": "[3]", "result": "2.2 ± 1.0", "unit": "%"}, {"measurement": "Breast Apo %", "setting": "[4]", "result": "1.4 ± 0.7", "unit": "%"}, {"measurement": "Uterus epithelium Apo %", "setting": "[4]", "result": "0.2 ± 0.1", "unit": "%"}, {"measurement": "Uterus stroma Apo %", "setting": "[4]", "result": "0.2 ± 0.1", "unit": "%"}, {"measurement": "mean score for intensity of pain on a bad day (scale 0-10)", "setting": "[5]; baseline", "result": 6.1}, {"measurement": "score for intensity of pain on a bad day (scale 0-10)", "setting": "[5]; month six, Lucrin once per month", "result": 0.7}, {"measurement": "score for intensity of pain on a bad day (scale 0-10)", "setting": "[5]; month three, Lucrin once per month", "result": 1.5}, {"measurement": "pain free days over the 180 day treatment period", "setting": "[5]; women, Lucrin once per month", "result": 117.8, "unit": "days"}, {"measurement": "pain free days, percent", "setting": "[5]; women, Lucrin once per month, 180 day treatment period", "result": 74, "unit": "%"}, {"measurement": "days of pain over the first three months", "setting": "[5]; women, Lucrin slow release injection once per month", "result": 19.4, "unit": "days"}, {"measurement": "thickening of the endometrium after three months", "setting": "human endometrium; Lucrin, five women", "result": "did not have a thickening of the endometrium"}, {"measurement": "Endometrium (mm), 1st dose", "setting": "human endometrium; Lupron once per month, 1st dose visit", "result": 7.5, "unit": "mm"}, {"measurement": "Endometrium (mm), 3 months", "setting": "human endometrium; Lupron once per month, 3 months", "result": 2.75, "unit": "mm"}, {"measurement": "Endometrium (mm), screening", "setting": "human endometrium; Lupron once per month, screening (baseline)", "result": 7.9, "unit": "mm"}, {"measurement": "biomarkers of bone resorption compared with baseline", "setting": "[6]", "result": "statistically significant increase"}, {"measurement": "estrogen level", "setting": "[6]", "result": "< 20", "unit": "pg/mL"}]}
